Assay results from US10172355B2, “Safened herbicidal compositions including 4-amino-3-chloro-5-fluoro-6-(4-chloro-2-fluoro-3-methoxyphenyl)pyridine-2-carboxylic acid or a derivative thereof for use in rice” (Dow AgroSciences LLC, priority 2012, dated 2019).
Read-outs that look alike come from different tables or passages of the source.

Experiments:
ORYSA=Orysa sativa, Rice = assay: Postemergence foliar-applied herbicides and safeners in direct-seeded rice, visual injury; type: in vivo; conditions: foliar; for Visual Injury (%) - 21 DAA ORYSA-‘Clearfield 171’ Obs / Visual Injury (%) - 21 DAA ORYSA-‘Neptune’ Obs / Visual Injury (%) - 21 DAA ORYSA-‘Wells’ Obs: Tables 1,2,7,8; for Visual crop injury (%) at 140 g/ha / Visual crop injury (%) at 280 g/ha: Oryza sativa, 480 h, read-out: Visual Injury (%) - 20 DAA ORYSA-‘Clearfield 171’ Obs
Source text: (§1) Seeds or nutlets of the desired test plant species were planted in a soil matrix prepared by mixing a loam or sandy loam soil (e.g., 28.6 percent silt, 18.8 percent clay, and 52.6 percent sand, with a pH of about 5.8 and an organic matter content of about 1.8 percent) and calcareous grit in an 80 to 20 ratio. The soil matrix was contained in plastic pots with a surface area of 84.6 square centimeters (cm^2). When required to ensure good germination and healthy plants, a fungicide treatment and/or other chemical or physical treatment was applied. The plants were grown for 8-22 days in a greenhouse with an approximate 14 hr photoperiod which was maintained at about 29° C. during the day and 26° C. during the night. Nutrients (Peters Excel 15-5-15 5-Ca 2-Mg and iron chelate) were applied in the irrigation solution as needed and water was added on a regular basis. Supplemental lighting was provided with overhead metal halide 1000-Watt lamps as necessary. The plants were employed for testing when they reached the second or third true leaf stage.
(§2) Treatments consisted of the acid or esters of 4-amino-3-chloro-5-fluoro-6-(4-chloro-2-fluoro-3-methoxy-phenyl)pyridine-2-carboxylic acid (compound A) and various safener components alone and in combination. Forms of compound A were applied on an acid equivalent basis. Safener components were applied on an active ingredient or acid equivalent basis depending on the compound.
(§3) Treatment requirements were calculated based upon the rates being tested, the concentration of active ingredient or acid equivalent in the formulation, and a 12 mL application volume at a rate of 187 L/ha.
(§4) For treatments comprised of formulated compounds, measured amounts of compounds were placed individually in 25 mL glass vials and diluted in a volume of 1.25% (v/v) Agri-dex crop oil concentrated to obtain 12× stock solutions. […] Application solutions were prepared by adding an appropriate amount of each stock solution (e.g., 1 mL) and diluted to the appropriate final concentrations with the addition of 10 mL of an aqueous mixture of 1.25% (v/v) Agri-dex crop oil concentrate so that the final spray solutions contained 1.25% (v/v) Agri-dex crop oil concentrate.
(§5) For treatments comprised of technical compounds, weighed amounts were placed individually in 25 mL glass vials and dissolved in a volume of 97:3 v/v acetone/DMSO to obtain 12× stock solutions. […] Application solutions were prepared by adding an appropriate amount of each stock solution (e.g., 1 mL) and diluted to the appropriate final concentrations with the addition of 10 mL of an aqueous mixture of 1.5% (v/v) Agri-dex crop oil concentrate so that the final spray solutions contained 1.25% (v/v) Agri-dex crop oil concentrate. When technical materials were used, the concentrated stock solutions were added to the spray solutions so that the final acetone and DMSO concentrations of the application solutions were […], respectively.
(§6) For treatments comprised of formulated and technical compounds, weighed amounts of the technical materials were placed individually in 25 mL glass vials and dissolved in a volume of 97:3 v/v acetone/DMSO to obtain 12× stock solutions, and measured amounts of the formulated compounds were placed individually in 25 mL glass vials and diluted in a volume of 1.5% (v/v) Agri-dex crop oil concentrate or water to obtain 12× stock solutions. […] Application solutions were prepared by adding an appropriate amount of each stock solution (e.g., 1 mL) and diluted to the appropriate final concentrations with the addition of an appropriate amount of an aqueous mixture of 1.5% (v/v) Agri-dex crop oil concentrate so that the final spray solutions contained 1.25% (v/v) Agri-dex crop oil concentrate. When required, additional water and/or 97:3 v/v acetone/DMSO was added to individual application solutions so that the final acetone and DMSO concentrations of the application solutions being compared were 8.1% and 0.25%, respectively. […]

[1] = system: ECHCG=Echinochloa crus-galli; assay: Postemergence foliar-applied herbicides and safeners, visual injury of weed; type: in vivo; conditions: foliar; for pest or weed control at 280 g/ha / pest or weed control at 140 g/ha: Echinochloa crus-galli, 480 h, read-out: Visual Injury (%) - 20 DAA ECHCG Obs
Source text: as §1, §2, §3, §4, §5, §6

[2] = safener 280 g ai/ha alone, trial of Tables 3,4,6,10,12,14
[3] = safener 140 g ai/ha alone, trial of Tables 3,4,6,10,12,14
[4] = safener 280 g ai/ha alone, trial of Tables 5,9,11,13
[5] = safener 140 g ai/ha alone, trial of Tables 5,9,11,13

SMILES | Visual crop injury (%) at 140 g/ha (ORYSA=Orysa sativa, Rice; [3]) | Visual crop injury (%) at 280 g/ha (ORYSA=Orysa sativa, Rice; [2]) | Visual Injury (%) - 20 DAA ECHCG Obs [1, 2] | pest or weed control at 140 g/ha [1, 5] | pest or weed control at 280 g/ha [1, 4] | Visual Injury (%) - 20 DAA ECHCG Obs [1, 3] | Visual crop injury (%) at 140 g/ha (ORYSA=Orysa sativa, Rice; [5]) | Visual crop injury (%) at 280 g/ha (ORYSA=Orysa sativa, Rice; [4]) | also measured
CCCCCC(C)OC(=O)COc1ccc(Cl)c2cccnc12 (centres unmarked) [Cloquintocet-mexyl] |  |  |  |  |  |  |  |  | Visual Injury (%) - 21 DAA ORYSA-‘Clearfield 171’ Obs (ORYSA=Orysa sativa, Rice; safener 70 g ai/ha alone): 0%; Visual Injury (%) - 21 DAA ORYSA-‘Neptune’ Obs (ORYSA=Orysa sativa, Rice; safener 70 g ai/ha alone): 0%; Visual Injury (%) - 21 DAA ORYSA-‘Wells’ Obs (ORYSA=Orysa sativa, Rice; safener 70 g ai/ha alone): 0%; Visual Injury (%) - 21 DAA ORYSA-‘Clearfield 171’ Obs (ORYSA=Orysa sativa, Rice; safener 140 g ai/ha alone): 0%; Visual Injury (%) - 21 DAA ORYSA-‘Neptune’ Obs (ORYSA=Orysa sativa, Rice; safener 140 g ai/ha alone): 0%; Visual Injury (%) - 21 DAA ORYSA-‘Wells’ Obs (ORYSA=Orysa sativa, Rice; safener 140 g ai/ha alone): 0%; Visual Injury (%) - 21 DAA ORYSA-‘Neptune’ Obs (ORYSA=Orysa sativa, Rice; safener 280 g ai/ha alone): 0%; Visual Injury (%) - 21 DAA ORYSA-‘Wells’ Obs (ORYSA=Orysa sativa, Rice; safener 280 g ai/ha alone): 0%
Cc1ccc(NC(=O)NC(C)(C)c2ccccc2)cc1 [Daimuron, N-(4-methylphenyl)-N′-(1-methyl-1-phenylethyl)-urea] |  |  |  |  |  |  |  |  | Visual Injury (%) - 21 DAA ORYSA-‘Clearfield 171’ Obs (ORYSA=Orysa sativa, Rice; safener 70 g ai/ha alone): 0%; Visual Injury (%) - 21 DAA ORYSA-‘Neptune’ Obs (ORYSA=Orysa sativa, Rice; safener 70 g ai/ha alone): 0%; Visual Injury (%) - 21 DAA ORYSA-‘Wells’ Obs (ORYSA=Orysa sativa, Rice; safener 70 g ai/ha alone): 0%; Visual Injury (%) - 21 DAA ORYSA-‘Clearfield 171’ Obs (ORYSA=Orysa sativa, Rice; safener 140 g ai/ha alone): 0%; Visual Injury (%) - 21 DAA ORYSA-‘Neptune’ Obs (ORYSA=Orysa sativa, Rice; safener 140 g ai/ha alone): 0%; Visual Injury (%) - 21 DAA ORYSA-‘Wells’ Obs (ORYSA=Orysa sativa, Rice; safener 140 g ai/ha alone): 0%; Visual Injury (%) - 21 DAA ORYSA-‘Neptune’ Obs (ORYSA=Orysa sativa, Rice; safener 280 g ai/ha alone): 0%; Visual Injury (%) - 21 DAA ORYSA-‘Wells’ Obs (ORYSA=Orysa sativa, Rice; safener 280 g ai/ha alone): 0%
C=CCN(CC=C)C(=O)C(Cl)Cl [Dichlormid, N,N-diallyl-2,2-dichloroacetamide] | 0% | 0% |  |  |  |  |  |  | pest or weed control at 280 g/ha [1, 2]: 0%
CC1(C)CN2C(=O)CCC2(C)N(C(=O)C(Cl)Cl)C1 (centres unmarked) [Dicyclonon] |  |  | 0% |  |  |  |  |  | Visual Injury (%) - 20 DAA ECHCG Obs [1, 4]: 3%; Visual Injury (%) - 20 DAA ORYSA-‘Clearfield 171’ Obs (ORYSA=Orysa sativa, Rice; [3]): 0%; Visual Injury (%) - 20 DAA ORYSA-‘Clearfield 171’ Obs (ORYSA=Orysa sativa, Rice; [5]): 0%; Visual Injury (%) - 20 DAA ORYSA-‘Clearfield 171’ Obs (ORYSA=Orysa sativa, Rice; [2]): 3%; Visual Injury (%) - 20 DAA ORYSA-‘Clearfield 171’ Obs (ORYSA=Orysa sativa, Rice; [4]): 0%
CC(C)(SC(=O)N1CCCCC1)c1ccccc1 [Dimepiperate, S-(1-methyl-1-phenylethyl)1-piperidine-carbothioate, reference compound] | 7% | 3% |  |  |  |  |  |  | pest or weed control at 140 g/ha [1, 3]: 0%; pest or weed control at 280 g/ha [1, 2]: 0%
Clc1cc(Cl)nc(-c2ccccc2)n1 [Fenclorim, 4,6-dichloro-2-phenylpyrimidine, reference compound] | 0% | 0% | 0% | 0% | 0% | 0% | 0% | 0% | 
CC1(C)OC(c2ccco2)CN1C(=O)C(Cl)Cl (centres unmarked) [Furilazole, 3-(dichloroacetyl)-5-(2-furanyl)-2,2-dimethyl-oxazolidine, reference compound] | 7% | 18% | 0% | 0% | 0% | 0% | 0% | 0% | 
O=C1OC(=O)c2cccc3cccc1c23 [Naphthalic anhydride, 1H,3H-naphtho[1,8-cd]pyran-1,3-dione, reference compound] | 0% | 0% | 0% | 0% | 0% | 0% | 0% | 3% | 
